Laboratory results reported in patent US20260034135A1, “USE OF N6-BENZYLAMINOPURINE AS AN APPETITE SUPPRESSANT” (THE GOVERNING COUNCIL OF THE UNIVERSITY OF TORONTO, priority 2022, published 2026).

How the values were obtained:
[1] = system: primary hypothalamic neurons; test: Feeding neuropeptide expression in primary hypothalamic culture (qRT-PCR); format: cell-based, CD-1 mice; details: 100 μM BAP, 16 hr, male- and female-derived cultures (both sexes)
Experimental: For cell culture experiments, total RNA was isolated using PureLink RNA isolation kit (Thermofisher Scientific, Burlington, ON, Canada) according to the manufacturer's instruction with on column DNase step (PureLink DNAse kit) or DNase I treatment to remove genomic DNA. For mouse experiments, total RNA was isolated using mirVana PARIS RNA and native protein isolation kit (Thermofisher Scientific). RNA quality and quantity were measured using Nanodrop 2000 and 500-1000 ng of complimentary DNA (cDNA) was synthesized with High Capacity cDNA Reverse Transcription kit (Applied biosystems, Thermofisher Scientific). Quantitative reverse transcription polymerase chain reaction (RT-qPCR) was performed with 12.5 ng of cDNA amplified with Platinum SYBR green qPCR SuperMix-UDG with ROX on an Applied Biosystems Prism 7900HT or PowerTrack Green Master Mix on an Applied Biosystems QuantStudio 5 and gene specific primers as per manufacturer's instructions (Table 1). Data was analyzed using […] and normalized to reference gene, either 60S ribosomal protein L7 (Rpl7) or Histone 3a (His).
Because the BAP was being fed to the mice, it is also important to determine what are the direct effects of BAP on native hypothalamic neurons, since the results may be due to an indirect effect from the periphery. Hypothalamus were extracted from male and female CD-1 mice fed a normal chow diet, and primary hypothalamic neurons were cultured from individual mice. The neurons were treated with 100 µM of BAP for 16 hr to assess the effect of BAP on feeding-related neuropeptide expression.

Npy, Agrp, Pomc = test: Hypothalamic feeding neuropeptide expression in mice by qRT-PCR; format: in vivo, CD-1 mice
Experimental: All protocols using mice were approved by the University Animal Care Committee of the University of Toronto and were performed in accordance with the Canadian Council on Animal Care. Animal experiments were performed in three separate animal facilities: Medical Sciences Building (MSB), Centre for Cellular and Biomolecular Research (CCBR) and the Biological Sciences Facility (BSF) due to ongoing construction and housing changes. Facilities and dates are indicated in each experimental cohort. N6-benzylaminopurine (BAP; also called N6-benzyladenine) was obtained from Sigma (B3408, cell culture grade in powder form; CAS number 1214-39-7). Male and female CD-1 mice aged 6-7 weeks were acquired from Charles Rivers and acclimated on a chow diet for one week prior to experimentation. Mice were then weight-matched and placed on either a 60% high fat diet (HFD) or sucrose-matched control diet for 4 weeks (from Research Diets: 60% HFD D12492 and the sucrose-matched control diet […]). After 3 weeks on the diet, mice were acclimated for one week to the drinking apparatus, a 50 mL canonical tube with a drinking tube. After 4 weeks on the diet, the mice were again weight-matched and randomly assigned to either the control or BAP group. […] The average dosages achieved using this method are as follows: male HFD (200 mg/kg/day), male control (157 mg/kg/day), female HFD (189 mg/kg/day), and female control (129.9 mg/kg/day). The mice were exposed continuously to the solutions for a total of 33 days. One week prior to the end of the experiment (day 28), the mice were fasted for 4 hr and underwent intraperitoneal insulin tolerance testing (ITT). After 33 days, the mice were sacrificed, and their tissues were collected. RNA was isolated from the collected hypothalamic and used to quantify gene expression via qRT-PCR. […] All mice were kept on the 60% HFD throughout the exposure period. The male mice were fed their respective emulsion for 11, 14 or 27 days (as indicated), and the female mice were fed for 12 or 36 days (as indicated). On day 12, the one cohort of male mice underwent general anesthetic for the purpose of post-experiment Bruker scanning. The male mice were then fed their assigned emulsion 2 hr prior to sacrificing and tissue collection. […] Hypothalamic collected from the mice were then used to isolate RNA and quantify gene expression using quantitative reverse transcription polymerase chain reaction (qRT-PCR). For cell culture experiments, total RNA was isolated using PureLink RNA isolation kit (Thermofisher Scientific, Burlington, ON, Canada) according to the manufacturer's instruction with on column DNase step (PureLink DNAse kit) or DNase I treatment to remove genomic DNA. For mouse experiments, total RNA was isolated using mirVana PARIS RNA and native protein isolation kit (Thermofisher Scientific). […] Quantitative reverse transcription polymerase chain reaction (RT-qPCR) was performed with 12.5 ng of cDNA amplified with Platinum SYBR green qPCR SuperMix-UDG with ROX on an Applied Biosystems Prism 7900HT or PowerTrack Green Master Mix on an Applied Biosystems QuantStudio 5 and gene specific primers as per manufacturer's instructions (Table 1). Data was analyzed using […] and normalized to reference gene, either 60S ribosomal protein L7 (Rpl7) or Histone 3a (His).

mHypoE-46 cell line = test: RNA-sequencing (RNA-seq) of mHypoE-46 exposed to BAP; format: cell-based, mouse; details: 100 μM BAP
Experimental: To assess global mRNA gene expression changes, we exposed the mHypoE-46 line to 100 μM BAP for 4 and 16 h and assess mRNA expression via RNA-sequencing (RNA-seq). […] It is already known that a decrease in mTORC1 signaling results in a decrease in Npy through decreases in p70-S6K activity (18-20). […] Specifically, the gene expression of the upstream inhibitors of mTORC1, sestrin2 (Sesn2) (21) and tuberous sclerosis complex 2 (Tsc2) were both increased with BAP; whereas the gene expression of two downstream effectors inhibited by mTORC1, 4e-BP1 (Eif4ebp1) and ULK1 (Ulk1), were increased as well, indicating an overall negative regulation of mTORC1 activity (see FIG. 42A and 42B).

[2] = female CD-1, 60% HFD, BAP in drinking water 33 days
[3] = male CD-1, HFD, BAP emulsion 11 days, fed 2 hr prior to sacrifice, cohort CCBR
[4] = male CD-1, HFD, BAP emulsion 14 days, cohort BSF
[5] = male CD-1, HFD, BAP emulsion, 28 days cohort BSF (27 days per FIG. 22)
[6] = male CD-1, sucrose-matched control diet, BAP in drinking water 33 days
[7] = both 4 and 16 h, validated in mHypoE-46

c1ccc(CNc2ncnc3nc[nH]c23)cc1 [BAP, N6-benzylaminopurine]
Agrp expression [1]: no effects
Npy expression [1]: no effects
Pomc expression [1]: significantly increase
hypothalamic Npy, Agrp, and Pomc expression (Npy, Agrp, Pomc; female CD-1, 60% HFD, 300 mg/kg BAP emulsion 36 days, cohort BSF): no changes
hypothalamic expression of feeding neuropeptides (Npy, Agrp, Pomc; female CD-1, 60% HFD, BAP emulsion 12 days, fed 16 hr prior to sacrifice, cohort CCBR (data not shown)): no significant changes
hypothalamic Agrp mRNA expression (Npy, Agrp, Pomc; [2]): no significant changes
hypothalamic Npy mRNA expression (Npy, Agrp, Pomc; [2]): no significant changes
hypothalamic Pomc mRNA expression (Npy, Agrp, Pomc; [2]): decreased
hypothalamic feeding neuropeptide expression (Npy, Agrp, Pomc) (Npy, Agrp, Pomc; female CD-1, sucrose-matched control diet, BAP in drinking water 33 days, trend to increased Npy and AgRP): do not have significant changes
hypothalamic feeding-related neuropeptide expression (Npy, Agrp, Pomc) vs control (Npy, Agrp, Pomc; male CD-1, 60% HFD, BAP in drinking water 33 days): did not have any significant changes
hypothalamic Agrp mRNA expression (Npy, Agrp, Pomc; [3]): significantly increased
hypothalamic Npy mRNA expression (Npy, Agrp, Pomc; [3]): significantly increased
hypothalamic Pomc mRNA expression (Npy, Agrp, Pomc; [3]): no significant changes
hypothalamic Agrp expression (Npy, Agrp, Pomc; [4]): modest increase
hypothalamic Npy expression (Npy, Agrp, Pomc; [4]): modest increase
hypothalamic Pomc expression (Npy, Agrp, Pomc; [4]): no change
hypothalamic Agrp expression (Npy, Agrp, Pomc; [5]): modest increase
hypothalamic Npy expression (Npy, Agrp, Pomc; [5]): modest increase
hypothalamic Pomc expression (Npy, Agrp, Pomc; [5]): no change
hypothalamic AgRP expression vs control (Npy, Agrp, Pomc; [6]): significantly higher
hypothalamic Npy expression vs control (Npy, Agrp, Pomc; [6]): significantly higher
hypothalamic Pomc mRNA expression vs control (Npy, Agrp, Pomc; [6]): no change
4e-BPI (Eif4ebp I), RNA-seq data 4 h (mHypoE-46 cell line; 4 h): ↑
S6K (Rps6kbI), RNA-seq data 4 h (mHypoE-46 cell line; 4 h): ns
Sestrin2 (Sesn2), RNA-seq data 4 h (mHypoE-46 cell line; 4 h): ↑
TSC2 (Tsc2), RNA-seq data 4 h (mHypoE-46 cell line; 4 h): ns
ULK I (Ulk I), RNA-seq data 4 h (mHypoE-46 cell line; 4 h): ns
4e-BPI (Eif4ebp I), RNA-seq data 16 h (mHypoE-46 cell line; 16 h): ↑
S6K (Rps6kbI), RNA-seq data 16 h (mHypoE-46 cell line; 16 h): ↓
Sestrin2 (Sesn2), RNA-seq data 16 h (mHypoE-46 cell line; 16 h): ↑
TSC2 (Tsc2), RNA-seq data 16 h (mHypoE-46 cell line; 16 h): ↑
ULK I (Ulk I), RNA-seq data 16 h (mHypoE-46 cell line; 16 h): ↑
early growth response protein 1 (Egr1) gene expression (mHypoE-46 cell line; [7]): highly downregulated
early growth response protein 3 (Egr3) gene expression (mHypoE-46 cell line; [7]): highly downregulated
c-fos gene expression (mHypoE-46 cell line; validated in mHypoE-46): significantly downregulated
c-jun gene expression (mHypoE-46 cell line; validated in mHypoE-46): significantly downregulated
